Source: publication PMC4801406, “MTH1 Substrate Recognition—An Example of Specific Promiscuity” (PLoS ONE, 2016)
“And” between values parts separate entries of the source, which are not always exact repeats. Equal entries are not always repeated. Where two headings read alike, the source gives them in different places.

Tests used:
MTH1 [1] = molecular target: T1, MTH1 (Homo sapiens, UniProt P36639); assay: 2D-NMR (1H-15N SOFAST-HMQC) titration, Kd from chemical shift perturbations; assay type: binding; settings: 100 μM 15N-MTH1, 298 K, pH 7.4
T1 construct: Full length p18 isoform MTH1 (M1-156) with an N-terminal 6-His TEV protease cleavable tag; 6-His (TEV-cleavable) (N, cleaved yes); made in house; host or cells: E. coli Gold BL21(DE3)
Experimental: Uniformly ^15N-labeled MTH1 was prepared as above with the TB media replaced M9 minimal media supplemented with 5 g/l of IsoGro base powder (^15N, 98%, Isotec) and 2 g/l of glucose. NMR samples were 100 μM in 50mM HEPES pH 7.4, 50 mM NaCl, 1 mM TCEP, 0.1 mM EDTA, 0.02% NaN3 and employing 1% d^6-DMSO as a lock signal. Spectra were acquired at 298 K on a Bruker Avance 600 MHz spectrometer running Topspin 2.1, equipped with a 5mm TCI cryoprobe with Z-axis gradients. The protein was titrated with compound stocks (100 mM in d6-DMSO) to give typical final compound concentrations 0, 50, 100, 198, 396, 593, 984, 1949 and 3824 μM; these were measured using ^1H-^15N-SOFAST-HMQC [17] experiments recorded with […] (t2,t1) complex points (in States-TPPI mode), and 9615x1624 Hz (^1H,^15N) spectral widths, (53.4 ms x 30.8 ms) acquisition times, respectively). The affinity of the compounds was determined via simultaneous nonlinear fitting of fast-exchange chemical shift perturbations (typically 5 amide correlations, employing absolute value of the linear ^1H,^15N chemical shift vector), with the GraFit package against compound concentration using a mass action binding isotherm equation.

MTH1 [2] = molecular target: T1, MTH1; assay: Biochemical IC50 for fragments (Fig 5)
MTH1 [3] = molecular target: T1, MTH1; settings: literature value, cited from earlier work
MTH1 [4] = molecular target: T1, MTH1; assay: MTH1 substrate Km determination (PPiLight pyrophosphate detection; malachite green coupled assay); assay type: biochemical; settings: this publication; 0.2 nM MTH1, substrate 0–300 μM
Experimental: MTH1 substrate Km determination assay conditions were 0.2 nM MTH1 and a concentration range of substrate from 0–300 μM, diluted in MTH1 reaction buffer (100 mM HEPES pH 7.5, 10 mM MgCl, 1 mM DTT and 0.005% Tween 20). After a reaction time of 15 minutes, pyrophosphate (PPi) released by the reaction was detected using the PPiLight inorganic pyrophosphate assay kit from Lonza and luminescence was monitored using the Perkin Elmer EnVision multimode plate reader. Substrates dGTP and 2-OH—dATP were sourced from Jena Bioscience. Substrates 8-oxo-dGTP, 8-oxo-rGTP, 8-oxo-dATP, 8-oxo-rATP and 2-OH-rATP were sourced from TriLink BioTechnologies.
All oxidised ATP-derived substrates were then tested using an assay format based on the enzymatic hydrolysis of the nucleotide substrate by purified human recombinant MTH1 to form the corresponding monophosphate nucleotide and pyrophosphate. An excess of inorganic pyrophosphatase was added to the assay, which allows the quantification of released inorganic phosphate as a measure of product levels in a coupled enzymatic assay. Inorganic phosphate was measured using an absorbance assay based on malachite green as described by Baykov et al.. The assay buffer in which MTH1, inorganic pyrophosphatase and substrates were diluted consisted of 100mM Tris at pH 7.4, 40 mM NaCl, 10 mM MgCl, 0.005% Tween 20 and 1 mM DTT. The final conditions in the assay during enzymatic incubation were 0.2 nM recombinant human MTH1, a three fold dilution range of 0–300 μM oxidised nucleotide substrate and 0.2U per ml inorganic pyrophosphatase.

[5] = molecular target: T2, Histidine-tagged MTH1 (isoform p18 (M1-V156)) (Homo sapiens, UniProt P36639); assay: Surface plasmon resonance (SPR) equilibrium binding; settings: steady-state, 1:1 Langmuir fit
T2 construct: Histidine-tagged MTH1 (isoform p18 (M1-V156)) was immobilized; made in house; host or cells: E. coli Gold BL21(DE3)
Experimental: SPR experiments were performed using a Biacore T200 biosensor (GE Healthcare). Series S NTA sensor chips (GE Healthcare) were used. All experiments were carried out using assay buffer containing; 50 mM HEPES pH 7.5, 150 mM NaCl, 0.005% Tween-20 (v/v) and 1% DMSO (v/v) as running buffer. Typically, 10 mM DMSO stocks of compounds were diluted 1:100 (v/v) in 50 mM HEPES pH 7.5, 150 mM NaCl, 0.005% Tween-20 (v/v) to form 100 μM intermediate stocks with final DMSO concentration of 1% (v/v). The intermediate solutions were then subsequently diluted using assay buffer to achieve final concentration range.
Histidine-tagged MTH1 (isoform p18 (M1-V156)) was immobilized as the ligand onto NTA sensor chips using a capture coupling method. Assay buffer was used as immobilization buffer. The nitrilotriacetic (NTA) surface was first activated with a 2-min injection of 500 μM NiCl2 in running buffer before the carboxymethyl dextran surface was activated with a 7-min injection of a 1:1 ratio of 0.4 M EDC and 0.1 M NHS. His-tagged protein was diluted into running buffer to a concentration of 20 μg/mL and immobilized to the surface with a 7-min injection. Remaining activated groups were blocked with two consecutive 60-sec pulses of 0.5 M Ethanolamine. Typical immobilization levels ranged from 500 to 3000 resonance units (RU).
Biacore T200 Evaluation software (GE Healthcare) was used for data processing and analysis. Equilibrium binding analysis was analyzed by plotting steady-state response level vs. compound concentration and fitting to the Langmuir equation (describing simple 1:1 binary interaction).

Structure (SMILES) | Kd (MTH1 [1]) | IC50 (MTH1 [2]) | Km (MTH1 [3]; ref [4],[34]) | Km (MTH1 [4]) | Kd [5] | Km (MTH1 [3]; ref [26])
Cn1c(=O)[nH]c2c(=O)[nH]c(N)nc21 [Compound 1] | 400 µM | > 100 µM | – | – | – | –
Nc1[nH]c(=O)nc2c1ncn2[C@H]1C[C@H](O)[C@@H](COP(=O)(O)OP(=O)(O)OP(=O)(O)O)O1 [Compound 2-OH-dATP, 2-OH-dATP] | – | – | 8.3 µM | 14 ± 6 µM | – | –
Nc1[nH]c(=O)nc2c1ncn2[C@@H]1O[C@H](COP(=O)(O)OP(=O)(O)OP(=O)(O)O)[C@@H](O)[C@H]1O [Compound 2-OH-rATP, 2-OH-rATP] | – | – | 4.3 µM | 13.4 µM and 13 µM | – | –
Cn1cnc2c(O)nc(N)nc21 [Compound 2] | 1100 µM | > 100 µM | – | – | – | –
CNc1nc2c(ncn2C)c(=O)[nH]1 [Compound 3] | 82 ± 6 µM | 59 µM | – | – | 24 ± 0.4 µM | –
CN(C)c1nc2c(ncn2C)c(=O)[nH]1 [Compound 4] | 2200 µM | > 100 µM | – | – | – | –
CC(=O)Nc1ccc2c(c1)ncn2C [Compound 5] | 95 ± 35 µM | > 80 µM | – | – | > 40 µM | –
Cc1cc(OCCCO)nc(N)n1 [Compound 6] | < 5 µM | 4.5 µM | – | – | 1.7 µM | –
CNc1cc(=O)[nH]c(=O)[nH]1 [Compound 7] | < 5 µM | 1.5 µM | – | – | 0.81 µM | –
Nc1ncnc2c1[nH]c(=O)n2[C@H]1C[C@H](O)[C@@H](COP(=O)(O)OP(=O)(O)OP(=O)(O)O)O1 [Compound 8-oxo-dATP, 8-oxo-dATP] | – | – | 15.2 µM | 7.6 ± 0.5 µM | – | 13.9 µM
Nc1ncnc2c1[nH]c(=O)n2[C@@H]1O[C@H](COP(=O)(O)OP(=O)(O)OP(=O)(O)O)[C@@H](O)[C@H]1O [Compound 8-oxo-rATP, 8-oxo-rATP] | – | – | 51 µM | 241 µM and 240 µM | – | –
Nc1nc2c([nH]c(=O)n2[C@@H]2O[C@H](COP(=O)(O)OP(=O)(O)OP(=O)(O)O)[C@@H](O)[C@H]2O)c(=O)[nH]1 [Compound 8-oxo-rGTP, 8-oxo-rGTP] | – | – | 55 µM | 82 ± 45 µM | – | –
Nc1nc2c(ncn2[C@H]2C[C@H](O)[C@@H](COP(=O)(O)OP(=O)(O)OP(=O)(O)O)O2)c(=O)[nH]1 [dGTP] | – | – | 258 µM | 420 µM | – | –
